Reference: patent US8609719B2, “Propargylated aminoindans, processes for preparation, and uses thereof” (priority 2006, dated 2013)
Where a name gives a salt, the structure may show the parent alone. Read-outs that look alike come from different tables or passages of the source.

What was measured:
Type in all cases: biochemical
MAO-B = molecular target: T1, MAO-B (Rattus norvegicus, UniProt P19643); experiment: Inhibition of MAO activity in vitro (PEA substrate)
T1 construct: from tissue; host or cells: brain, liver and intestine (duodenum) of dosed rats
T1 sequence (P19643 1-520): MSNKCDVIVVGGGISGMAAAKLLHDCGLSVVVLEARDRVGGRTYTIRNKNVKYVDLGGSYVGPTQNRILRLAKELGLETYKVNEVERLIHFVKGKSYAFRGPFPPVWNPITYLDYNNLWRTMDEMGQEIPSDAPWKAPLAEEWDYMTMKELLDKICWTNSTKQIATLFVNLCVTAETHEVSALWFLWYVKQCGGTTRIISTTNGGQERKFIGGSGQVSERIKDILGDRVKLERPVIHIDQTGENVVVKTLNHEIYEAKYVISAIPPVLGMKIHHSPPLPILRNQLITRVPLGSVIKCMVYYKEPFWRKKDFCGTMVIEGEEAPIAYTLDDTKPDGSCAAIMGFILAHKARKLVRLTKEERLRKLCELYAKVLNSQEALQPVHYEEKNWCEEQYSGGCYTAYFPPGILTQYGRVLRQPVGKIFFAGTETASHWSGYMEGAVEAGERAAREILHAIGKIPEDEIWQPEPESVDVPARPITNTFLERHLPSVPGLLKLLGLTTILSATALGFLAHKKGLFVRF
Experimental: The MAO enzyme source was a homogenate of rat brain in 0.3M sucrose. The homogenate was diluted appropriately, and pre-incubated with serial dilutions of test compounds—diluted in phosphate buffer containing clogyline when 2-phenylethylamine (PEA) is the substrate, and diluted in phosphate buffer containing selegiline when 5-hydroxytryptamine (5-HT) is the substrate—for 60 minutes at 37° C. 14C-Labeled substrates (PEA for MAO-B determination and 5-HT for MAO-A determination) were then added, and the incubation continued for a further 20 minutes (PEA) or 30 minutes (5-HT). Substrate concentrations used were 10 μM (PEA) and 100 uM (5-HT). Enzyme concentration was chosen so that not more than 10% of the substrate was metabolized during the course of the reaction. Deaminated products were extracted into toluene-ethyl acetate (1:1 v/v) containing 0.4% (w/v) 2,5-diphenyloxazole (ppo) prior to determination by liquid scintillation counting. Radioactivity in the eluate indicated the production of neutral and acidic metabolites formed as a result of MAO activity. Activity of MAO in the sample was expressed as a percentage of control activity in the absence of inhibitor after subtraction of appropriate blank values. The activity determined using PEA as substrate is referred to as MAO-B, and that determined using 5-HT as MAO-A.
Concentrations of each inhibitor producing 50% inhibition of substrate metabolism (IC50) were calculated from the inhibition curves, and are shown in Table 1.

Recombinant human AChE = molecular target: T2, Recombinant human AChE (Homo sapiens, UniProt P22303); experiment: Inhibition of acetylcholinesterase activity in vitro (Ellman, stopped time assay); set-up: ki (bimolecular rate constant): unit not given here
T2 construct: purchased Sigma-Aldrich Israel C-1682
T2 sequence (P22303 32-614): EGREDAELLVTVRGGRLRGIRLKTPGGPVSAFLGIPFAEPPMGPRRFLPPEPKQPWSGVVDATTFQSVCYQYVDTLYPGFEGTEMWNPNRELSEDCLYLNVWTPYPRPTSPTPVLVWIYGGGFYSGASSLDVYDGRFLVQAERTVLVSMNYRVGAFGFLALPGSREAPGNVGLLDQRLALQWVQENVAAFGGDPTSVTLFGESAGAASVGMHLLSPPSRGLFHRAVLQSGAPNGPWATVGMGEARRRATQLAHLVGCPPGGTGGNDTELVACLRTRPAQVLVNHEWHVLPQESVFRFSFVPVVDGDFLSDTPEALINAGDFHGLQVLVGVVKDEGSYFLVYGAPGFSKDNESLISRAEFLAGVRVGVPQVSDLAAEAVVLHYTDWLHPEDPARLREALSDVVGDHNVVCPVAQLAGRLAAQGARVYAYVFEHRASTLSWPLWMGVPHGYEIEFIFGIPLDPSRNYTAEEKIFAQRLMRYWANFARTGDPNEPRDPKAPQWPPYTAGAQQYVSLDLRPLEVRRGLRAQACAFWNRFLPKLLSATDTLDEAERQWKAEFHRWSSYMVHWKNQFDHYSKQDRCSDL
Experimental: Recombinant human AChE (C-1682), acetylthiocholine iodide (AcTh, A5771), bovine serum albumin (BSA, A-2153), and 5,5′-dithiobis(2-nitrobenzoic acid) (DTNB, D8130) were obtained from Sigma-Aldrich Israel. […] AChE was dissolved in phosphate buffer pH 8.0 containing 0.01% sodium azide NaAz and 1 mM EDTA and diluted to give a concentration of 15 units/ml. This solution was divided into aliquots of 0.5 ml, which were stored at −70° C. until use.
The inhibitory activity against AChE was determined by the method of Ellmann et al. (Biochemical Pharmacology, 1961 (7) 88-95) using AcTh as a substrate. To characterize the carbamoylation step, a traditional stopped time assay was performed, in which AChE was incubated at 37° C. with a minimum of 5 different concentrations of inhibitor in the assay buffer, and aliquots were transferred to an ELISA multiscan microplate reader (Labsystems) at various times for the determination of residual AChE activity, with Ascent PC software. The rate of reaction was measured at 412λ at 37° C. in 0.2 ml wells containing AChE 0.023 units per ml, DTNB 0.4-0.5 mM, AcTh 0.50 or 1 mM and BSA (0.05%) in 50 mM phosphate buffer as described above. Measurements were made every 5 min for up to 5 hours.
(§1) The inhibition of AChE by carbamates involves the formation of a reversible complex (EOH•CX), followed by carbamoylation of the enzyme to form (EOC) and a leaving group (HX). The carbamoylated enzyme is then hydrolyzed by water to regenerate the free enzyme (EOH).
The formation of the reversible complex is represented by the equilibrium constant: KD. For the carbamoylation phase of the inhibition process the unimolecular rate constant is represented by kmax, and the bimolecular rate constant by ki.

BuChE from human serum = molecular target: T3, BuChE from human serum (Homo sapiens, UniProt P06276); experiment: Inhibition of butyrylcholinesterase activity in vitro (Ellman, stopped time assay); set-up: ki (bimolecular rate constant): unit not given here
T3 construct: BuChE from human serum (C-9971); purchased Sigma-Aldrich Israel C-9971; host or cells: purified from human serum
T3 sequence (P06276 29-602): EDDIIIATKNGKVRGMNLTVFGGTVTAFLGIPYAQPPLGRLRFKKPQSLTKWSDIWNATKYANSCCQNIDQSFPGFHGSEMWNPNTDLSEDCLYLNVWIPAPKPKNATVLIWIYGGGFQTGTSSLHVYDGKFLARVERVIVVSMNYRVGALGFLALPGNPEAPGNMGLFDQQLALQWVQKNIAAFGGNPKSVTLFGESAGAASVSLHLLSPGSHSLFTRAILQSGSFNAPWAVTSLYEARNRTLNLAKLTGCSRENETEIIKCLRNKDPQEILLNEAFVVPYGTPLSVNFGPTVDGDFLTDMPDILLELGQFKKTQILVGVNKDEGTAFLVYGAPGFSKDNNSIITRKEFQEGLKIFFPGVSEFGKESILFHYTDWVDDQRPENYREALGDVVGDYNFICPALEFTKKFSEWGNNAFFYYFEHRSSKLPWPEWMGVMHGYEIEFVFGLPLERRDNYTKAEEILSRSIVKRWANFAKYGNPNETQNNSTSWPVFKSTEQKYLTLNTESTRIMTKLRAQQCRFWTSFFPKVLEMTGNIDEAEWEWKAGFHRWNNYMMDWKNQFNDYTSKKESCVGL
Experimental: BuChE from human serum (C-9971), butyrylthiocholine iodide (BuTh, B3253), bovine serum albumin (BSA, A-2153) 5,5′-dithiobis(2-nitrobenzoic acid) (DTNB, D8130) were obtained from Sigma-Aldrich Israel. BuChE was dissolved in phosphate buffer pH 8.0 containing 0.01% sodium azide (NaAz) and 1 mM EDTA and diluted to give a concentration of 35.9 units/ml. This solution was divided into aliquots of 0.5 ml, which were stored at −70° C. until use.
The inhibitory activity against BuChE was determined by the method of Ellmann et al. (Biochemical Pharmacology, 1961 (7) 88-95) using BuTh as a substrate. To characterize the carbamoylation step, a traditional stopped time assay was performed, in which BuChE was incubated at 37° C. with a minimum of 5 different concentrations of inhibitor in the assay buffer, and aliquots were transferred to an ELISA multiscan microplate reader (Labsystems) at various times for the determination of residual BuChE activity, with Ascent PC® software. The rate of reaction was measured at 412λ at 37° C. in 0.2 ml wells containing […] 0.023 units per ml, DTNB 0.4-0.5 mM, AcTh 0.50 or 1 mM and BSA (0.05%) in 50 mM phosphate buffer as described above. For all compounds measurements were made every 2 min for 15 min and then every 15 min for 3 hr.
as §1, with “BuChE” for “AChE”, “(EOH). The formation of the reversible complex is represented by the equilibrium constant: KD. For the carbamoylation phase of the inhibition process the unimolecular rate constant is represented by kmax, and the bimolecular rate constant by ki.” for “(EOH).”

Row | SMILES | IC50 (MAO-B; rat brain homogenate, PEA 10 μM, 60 minutes pre-incubation at 37° C., read-out: IC50 for MAO-B inhibition) [µM] | inhibition of acetylcholinesterase, in words (Recombinant human AChE) | ki (bimolecular rate constant) (Recombinant human AChE; AChE, 37° C.) | kmax (unimolecular carbamoylation rate constant) (Recombinant human AChE; AChE, 37° C.) [min⁻¹] | Kd (Recombinant human AChE; AChE, 37° C., read-out: KD (equilibrium constant of reversible complex)) [µM] | inhibition of butyrylcholinesterase, in words (BuChE from human serum) | ki (bimolecular rate constant) (BuChE from human serum; BuChE, 37° C.) | kmax (unimolecular carbamoylation rate constant) (BuChE from human serum; BuChE, 37° C.) [min⁻¹] | Kd (BuChE from human serum; BuChE, 37° C., read-out: KD (equilibrium constant of reversible complex)) [µM] | IC50 (MAO-B) [µM] | Kd (BuChE from human serum) [µM]
1 | C#CCN[C@@H]1CCc2ccc(OC(=O)N(CC)CO)cc21 [R-HCPAI, Ethyl-hydroxymethyl-carbamic acid 3-R-(prop-2-ynylamino)-indan-5-yl ester fumarate (2:1)] | 599 | weak inhibitor | 0.106 ± 0.008 | 0.033 | 306 | weak inhibitor | 0.936 ± 0.06 | 0.104 ± 0.043 | 111 ± 50 | – | –
2 | C#CCN[C@@H]1CCc2ccc(OC(=O)NC)cc21 [R-MCPAI, Methyl-carbamic acid 3-R-(prop-2-ynylamino)-indan-5-yl ester hydrochloride] | – | potent inhibitors | – | 0.435 | – | potent inhibitors | 31.3 ± 2.0 | 0.65 ± 0.03 | – | 42 | 21 ± 2
3 | CNC(=O)Oc1ccc2c(c1)[C@H](N)CC2 [R-MCAI, Methyl-carbamic acid 3-R-amino-indan-5-yl ester hydrochloride] | – | potent inhibitors | – | 1.63 | – | potent inhibitors | 14.5 ± 0.42 | 0.516 ± 0.050 | – | > 1000 | 36 ± 5
